For assay [1], the system named is MCF7. Nature of the assay: Antiproliferative activity against human MCF7 cells after 2 days by MTT assay. Format: functional, cell-based. As to conditions: for IC50: MCF7, 48 h. On the technique in general: Tetrazolium assays rely on reduction of a dye to a coloured formazan, in cell work by metabolically active cells.
Assay [2] concerns MCF7. Nature of the assay: Antiproliferative activity against human MCF7 cells at 0.01 to 100 nmol/L after 2 days by MTT assay. Type of assay: functional.

SMILES strings stand for the structures.

For orientation: IC50 means the point on the concentration scale where inhibition reaches its midpoint. `C/C(=C\c1csc(C)n1)[C@@H]1C[C@@H]2O[C@]2(C)CCC[C@H](C)[C@H](OC(=O)CO[C@@H]2O[C@H](CO)[C@H](O)[C@H](O)[C@H]2O)[C@@H](C)C(=O)C(C)(C)[C@@H](O)CC(=O)O1` registered an IC50 with MCF7 [1] of 5730 nM. In addition, the Activity in the assay with MCF7 [2] is listed as 7.9 - 98.6%.
For the compound `C/C(=C\c1csc(C)n1)[C@@H]1C[C@@H]2O[C@]2(C)CCC[C@H](C)[C@H](O)[C@@H](C)C(=O)C(C)(C)[C@@H](O)CC(=O)O1` [PATUPILONE], the Activity entry was “Dose-dependent effect” in the assay with MCF7 [1] and 3 - 80.3% in the assay on MCF7 [2]. Further, the IC50 in the assay on MCF7 [1] is 38.2 nM.

Values taken from ChEMBL document CHEMBL4265990, “Synthesis, anticancer activity and cytotoxicity of galactosylated epothilone B” (Bioorg Med Chem, 2018).
